Read-outs that look alike come from different tables or passages of the source. Where a SMILES comes first, the peptide text is derived from it. [ ]: non-standard residue; d: D form.
Experiments:
A. baumannii [1] = experiment: microbe, parasite or virus in culture; format: cell-based, Acinetobacter baumannii
Summary of the method: (§1)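 Each strain is brought to 2×10^6 CFU in nutrient-sufficient Mueller-Hinton medium and dispensed into wells. Peptide solutions, stepwise diluted 2:1 in the same medium, are then added. The minimal concentration preventing growth gives the MIC.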

MDRAB 12035 [2] = experiment: microbe, parasite or virus in culture; format: cell-based, Acinetobacter baumannii
Summary of the method: as §1

MDRAB 12035 [3] = experiment: MIC of antibiotic during combined treatment with antimicrobial peptide; format: cell-based, Acinetobacter baumannii
Summary of the method: (§2)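 Antibiotic MIC came from antibiotic dilutions added to bacteria (2×10^6 CFU/ml, MH medium) already combined with peptide serially diluted 2:1 from its own MIC. Swapping the roles of the two agents gave the peptide MIC.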

A. baumannii [4] = experiment: as above; format: cell-based, Acinetobacter baumannii; conditions: A. baumannii
Summary of the method: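 MIC values for mixed peptide plus antibiotic solutions were measured in MH medium.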

MDRPA 2002 = format: cell-based, Pseudomonas aeruginosa
Summary of the method: as §1

MDRPA 2003 = format: cell-based, Pseudomonas aeruginosa
Summary of the method: as §1

B. subtilis = experiment: microbe, parasite or virus in culture; format: cell-based, Bacillus subtilis
Summary of the method: as §1

E. coli = format: cell-based, Escherichia coli; conditions: E. coli
Summary of the method: as §2

MDREC 1229 = format: cell-based, Escherichia coli
Summary of the method: as §2

[5] = peptide treatment concentration 1 μg/ml
[6] = peptide treatment concentration 2 μg/ml
[7] = peptide treatment concentration 4 μg/ml
[8] = peptide treatment concentration 6 μg/ml
[9] = peptide treatment concentration 8 μg/ml
[10] = peptide treatment concentration 16 μg/ml
[11] = peptide treatment concentration 32 μg/ml
[12] = peptide treatment concentration 64 μg/ml
[13] = combined with peptide at 1 μg/ml
[14] = combined with peptide at 2 μg/ml
[15] = combined with peptide at 4 μg/ml
[16] = combined with peptide at 6 μg/ml
[17] = combined with peptide at 8 μg/ml
[18] = combined with peptide at 16 μg/ml
[19] = combined with peptide at 32 μg/ml
[20] = combined with peptide at 64 μg/ml

CC[C@H](C)[C@H](NC(=O)[C@H](CCCCN)NC(=O)[C@H](Cc1c[nH]c2ccccc12)NC(=O)[C@@H](N)CCCNC(=N)N)C(=O)N[C@@H](Cc1ccccc1)C(=O)N[C@@H](CCCCN)C(=O)N[C@@H](CCCCN)C(=O)N[C@H](C(=O)N[C@H](CCCCN)C(=O)N[C@@H](CCCCN)C(=O)N[C@@H](CC(C)C)C(=O)N[C@@H](CC(C)C)C(=O)N[C@@H](Cc1c[nH]cn1)C(=O)N[C@@H](CCCCN)C(=O)N[C@@H](C)C(=O)N[C@@H](CCCCN)C(=O)N[C@@H](CCCCN)C(=O)N[C@@H](Cc1c[nH]c2ccccc12)C(N)=O)[C@@H](C)CC [PapMA-18, RWK IFK KIk KLL HKA KKW-NH2] (H-RWKIFKKI[dK]KLLHKAKKW-NH2; N-terminus assumed)
16 µg/mL: Erythromycin MIC during combined treatment with peptide (MDRAB 12035 [3]; [7]) | Linezolid MIC during combined treatment with peptide (MDRAB 12035 [3]; [9]) | Vancomycin MIC during combined treatment with peptide (MDRAB 12035 [3]; [9]) | Vancomycin MIC during combined treatment with peptide (MDRAB 12035 [3]; [10]) | Antibiotic MIC, Erythromycin (A. baumannii [4]; [15]) | Antibiotic MIC, Linezolid (A. baumannii [4]; [17]) | Antibiotic MIC, Vancomycin (A. baumannii [4]; [17]) | Antibiotic MIC, Vancomycin (A. baumannii [4]; [18])
>128 µg/mL: Linezolid MIC during combined treatment with peptide (MDRAB 12035 [3]; [5]) | Vancomycin MIC during combined treatment with peptide (MDRAB 12035 [3]; [5]) | Linezolid MIC during combined treatment with peptide (MDRAB 12035 [3]; [6]) | Vancomycin MIC during combined treatment with peptide (MDRAB 12035 [3]; [6]) | Antibiotic MIC, Linezolid (A. baumannii [4]; [13]) | Antibiotic MIC, Vancomycin (A. baumannii [4]; [13]) | Antibiotic MIC, Vancomycin (A. baumannii [4]; [14]) | Minimal inhibitory concentration MIC (B. subtilis)
32 µg/mL: Minimal inhibitory concentration MIC (A. baumannii [1]) | Peptide MIC, peptide alone (A. baumannii [1]) | Minimal inhibitory concentration MIC (MDRAB 12035 [2]) | Peptide MIC, peptide alone (MDRAB 12035 [2]) | Erythromycin MIC during combined treatment with peptide (MDRAB 12035 [3]; [5]) | Erythromycin MIC during combined treatment with peptide (MDRAB 12035 [3]; [6]) | Linezolid MIC during combined treatment with peptide (MDRAB 12035 [3]; [8]) | Vancomycin MIC during combined treatment with peptide (MDRAB 12035 [3]; [8]) | Antibiotic MIC, Erythromycin (A. baumannii [4]; [13]) | Antibiotic MIC, Erythromycin (A. baumannii [4]; [14]) | Antibiotic MIC, Linezolid (A. baumannii [4]; [16]) | Antibiotic MIC, Vancomycin (A. baumannii [4]; [16]) | Minimal inhibitory concentration MIC (MDRPA 2002)
0.5 µg/mL: Erythromycin MIC during combined treatment with peptide (MDRAB 12035 [3]; [10]) | Antibiotic MIC, Erythromycin (A. baumannii [4]; [18])
2 µg/mL: Erythromycin MIC during combined treatment with peptide (MDRAB 12035 [3]; [9]) | Antibiotic MIC, Erythromycin (A. baumannii [4]; [16]) | Peptide MIC during treatment with antibiotic (MDREC 1229; erythromycin 32 μg/ml (Conc./MIC 1/8)) | Peptide MIC during treatment with antibiotic (MDREC 1229; erythromycin 64 μg/ml (Conc./MIC 1/4)) | Peptide MIC during treatment with antibiotic (MDREC 1229; erythromycin […] (Conc./MIC 1/2)) | Peptide MIC during treatment with antibiotic (MDREC 1229; vancomycin 512 μg/ml (Conc./MIC 1/2))
1 µg/mL: Antibiotic MIC, Erythromycin (A. baumannii [4]; [17]) | Peptide MIC during treatment with antibiotic (MDREC 1229; linezolid […] (Conc./MIC 1/2)) | Peptide MIC during treatment with antibiotic (MDREC 1229; vancomycin 1024 μg/ml (Conc./MIC 1))
64 µg/mL: Linezolid MIC during combined treatment with peptide (MDRAB 12035 [3]; [7]) | Antibiotic MIC, Linezolid (A. baumannii [4]; [15]) | Minimal inhibitory concentration MIC (MDRPA 2003)
8 µg/mL: Linezolid MIC during combined treatment with peptide (MDRAB 12035 [3]; [10]) | Peptide MIC during treatment with antibiotic (MDREC 1229; vancomycin […] (Conc./MIC 1/8))
128 µg/mL: Vancomycin MIC during combined treatment with peptide (MDRAB 12035 [3]; [7]) | Antibiotic MIC, Linezolid (A. baumannii [4]; [14]) | Antibiotic MIC, Vancomycin (A. baumannii [4]; [15])
4 µg/mL: Erythromycin MIC during combined treatment with peptide (MDRAB 12035 [3]; [8]) | Antibiotic MIC, Linezolid (A. baumannii [4]; [18]) | Peptide MIC during treatment with antibiotic (MDREC 1229; linezolid 64 μg/ml (Conc./MIC 1/8)) | Peptide MIC during treatment with antibiotic (MDREC 1229; linezolid […] (Conc./MIC 1/4)) | Peptide MIC during treatment with antibiotic (MDREC 1229; vancomycin […] (Conc./MIC 1/4))
0 µg/mL: Erythromycin MIC during combined treatment with peptide (MDRAB 12035 [3]; [11]) | Linezolid MIC during combined treatment with peptide (MDRAB 12035 [3]; [11]) | Vancomycin MIC during combined treatment with peptide (MDRAB 12035 [3]; [11]) | Erythromycin MIC during combined treatment with peptide (MDRAB 12035 [3]; [12]) | Linezolid MIC during combined treatment with peptide (MDRAB 12035 [3]; [12]) | Vancomycin MIC during combined treatment with peptide (MDRAB 12035 [3]; [12]) | Antibiotic MIC, Erythromycin (A. baumannii [4]; [19]) | Antibiotic MIC, Linezolid (A. baumannii [4]; [19]) | Antibiotic MIC, Vancomycin (A. baumannii [4]; [19]) | Antibiotic MIC, Erythromycin (A. baumannii [4]; [20]) | Antibiotic MIC, Linezolid (A. baumannii [4]; [20]) | Antibiotic MIC, Vancomycin (A. baumannii [4]; [20]) | Peptide MIC (E. coli; with Erythromycin […] (Conc./MIC 1)) | Peptide MIC (E. coli; with Linezolid […] (Conc./MIC 1)) | Peptide MIC (E. coli; with Vancomycin 1024 μg/ml (Conc./MIC 1)) | Peptide MIC during treatment with antibiotic (MDREC 1229; erythromycin […] (Conc./MIC 1)) | Peptide MIC during treatment with antibiotic (MDREC 1229; linezolid 512 μg/ml (Conc./MIC 1))

— US11214594B2, “Antimicrobial peptide having synergistic antibacterial effect with antibiotics on multidrug resistant bacteria, and use thereof” (priority 2016, dated 2022)
